Laboratory results taken from US20240002344A1, “COMPOUNDS, COMPOSITIONS AND METHODS FOR HISTONE LYSINE DEMETHYLASE INHIBITION” (FibroGen, Inc., priority 2020, published 2024).
pIC50: −log10 of the molar value.

What was measured:
recombinant human KDM5B = molecular target: T1, recombinant human KDM5B (Homo sapiens, UniProt Q9UGL1); assay: 14CO2 capture enzymatic assay (decarboxylation of [1-14C] αKG), KDM5B; assay type: biochemical; details: 10 μM [1-14C] αKG, 90 μM non-labeled αKG, 50 μM peptide substrate, 37° C., 1 hour, final 1% DMSO
T1 sequence (Q9UGL1 374-755 limits assumed): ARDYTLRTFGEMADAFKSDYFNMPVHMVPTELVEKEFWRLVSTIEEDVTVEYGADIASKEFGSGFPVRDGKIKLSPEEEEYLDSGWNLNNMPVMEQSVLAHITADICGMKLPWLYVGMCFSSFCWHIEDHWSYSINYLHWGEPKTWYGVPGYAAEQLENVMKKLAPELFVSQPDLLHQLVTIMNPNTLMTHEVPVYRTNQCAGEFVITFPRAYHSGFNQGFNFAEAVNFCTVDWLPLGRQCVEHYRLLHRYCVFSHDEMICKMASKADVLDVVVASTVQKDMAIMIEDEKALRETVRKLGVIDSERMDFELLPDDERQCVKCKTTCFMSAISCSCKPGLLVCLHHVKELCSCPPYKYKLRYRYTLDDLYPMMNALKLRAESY
Method: (§1) Enzymatic activity was determined based on the capture of ^14CO2 released by the decarboxylation of [1-^14C] αKG (Zhang et al., Anal. Biochem., 1998, vol. 271, pp. 137-142). [1-^14C]alphaketoglutarate (αKG) was from Perkin-Elmer, H3K4me3 and H3K9me3 peptides were from Mimotopes. All other reagents were from Sigma. Reaction mixtures included the following components: Fe(SO4), [1-^14C] αKG, non-labeled αKG, ascorbate, peptide-substrate (H3K4me3: H-ARTK(me3)QTARKSTGGKAPRKQLA-OH. H3K9me3: H-ARTKQTARK(me3)STGGKAPRKQLA-OH), NaCl, Tween-20 and catalase in 25 mM HEPES buffer, pH 7.4. The enzymatic reactions were initiated by addition of recombinant human KDM5B or KDM4A enzyme (truncated enzyme produced in house by method and using sequence disclosed in Ng et al, Nature 448:87-91, 2007). The reactions were performed in 96-well microtiter plates (20 μL total assay volume) (Greiner #650201). ^14CO2 was captured on a glass fiber filter paper (Cat. No. IH-201-A, Inotech Biosystems International) soaked with saturated Ba(OH)2 that was laid on top of the 96-well plate. A microtiter plate sealer film (Thermal Seal cat #T7961100) was applied to the filter paper. The plate and filter paper were sandwiched between two custom made aluminum plates (Advanced Component Manufacturing, Burlingame, CA) and transferred to a 37° C. oven and allowed to incubate for 1 hour. After incubation, the filter paper was dried in a 103° C. oven for 40-60 minutes. To determine percent turnover, aliquots of the reaction mixture were spotted onto the filter paper and the filter paper was dried again. The dry filter paper was exposed to a storage phosphor screen for 24-72 hours and the images recorded using a Typhoon FLA 7000 Imager (Amersham Biosciences, Piscataway, NJ). Integrated spot intensities corresponding to control reactions lacking the enzyme were subtracted from integration results for enzyme containing reactions and data were converted to enzyme dependent percent ^14CO2 release. All enzymatic reactions were run in duplicates.
(§2) For IC50 determination, a 3-fold dilution series of compound was prepared and added to the reaction mixture (final 1% DMSO, v/v) prior to enzyme addition. The final reagent concentrations were: 10 μM Fe(SO4), 10 μM [1-^14C] αKG, 90 μM non-labeled αKG, 2 mM ascorbate, 50 μM peptide substrate, 75 mM NaCl, 0.01% Tween-20 and ˜2 units/μL catalase. IC50s were determined by non-linear fitting using Grafit version 7.0.

recombinant human KDM4A = molecular target: T2, recombinant human KDM4A (Homo sapiens, UniProt O75164); assay: 14CO2 capture enzymatic assay (decarboxylation of [1-14C] αKG), KDM4A; assay type: biochemical; details: 10 μM [1-14C] αKG, 90 μM non-labeled αKG, 50 μM peptide substrate, 37° C., 1 hour, final 1% DMSO
T2 construct: made in house
T2 sequence (O75164 1-359 limits assumed): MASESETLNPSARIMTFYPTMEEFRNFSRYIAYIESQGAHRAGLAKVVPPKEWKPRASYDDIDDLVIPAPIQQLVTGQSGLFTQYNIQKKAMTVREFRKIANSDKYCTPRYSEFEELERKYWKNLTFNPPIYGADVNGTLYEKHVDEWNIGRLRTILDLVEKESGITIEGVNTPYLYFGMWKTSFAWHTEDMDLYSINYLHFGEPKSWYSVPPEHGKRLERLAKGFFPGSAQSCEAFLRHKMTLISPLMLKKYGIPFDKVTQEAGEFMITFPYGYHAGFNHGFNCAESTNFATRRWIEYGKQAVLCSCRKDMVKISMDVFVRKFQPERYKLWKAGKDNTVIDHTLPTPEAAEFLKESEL
Method: as §1, §2

Compound | pIC50 (recombinant human KDM5B) | pIC50 (recombinant human KDM4A)
O=C(O)CCC(=O)c1nc(Br)cc(Br)c1O [Example 1, 4-(4,6-Dibromo-3-hydroxy-pyridin-2-yl)-4-oxo-butyric acid] | 6.35 | 4.44
N#Cc1cc(Br)c(O)c(C(=O)CCC(=O)O)n1 [Example 2, 4-(4-Bromo-6-cyano-3-hydroxy-pyridin-2-yl)-4-oxo-butyric acid] | 6.51 | 4.72
O=C(O)CCC(=O)c1nc(C(F)(F)F)cc(C(F)(F)F)c1O [Example 4, 4-(3-Hydroxy-4,6-bis-trifluoromethyl-pyridin-2-yl)-4-oxo-butyric acid] | 6.64 | 5.46
CSc1cc(C#N)c(O)c(C(=O)CCC(=O)O)n1 [Example 5, 4-(4-Cyano-3-hydroxy-6-methylsulfanyl-pyridin-2-yl)-4-oxo-butyric acid] | 6.62 | 4.15
Cc1cc(C#N)c(O)c(C(=O)CCC(=O)O)n1 [Example 6, 4-(4-Cyano-3-hydroxy-6-methyl-pyridin-2-yl)-4-oxo-butyric acid] | 6.55 | < 4.40
N#Cc1cc(C(F)(F)F)c(O)c(C(=O)CCC(=O)O)n1 [Example 8, 4-(6-Cyano-3-hydroxy-4-trifluoromethyl-pyridin-2-yl)-4-oxo-butyric acid] | 6.57 | 4.89
N#Cc1cc(-c2ccccn2)nc(C(=O)CCC(=O)O)c1O [Example 11, 4-(4-Cyano-5-hydroxy-[2,2′]bipyridinyl-6-yl)-4-oxo-butyric acid] | 6.23 | < 4.40
COc1ccccc1-c1cc(C#N)c(O)c(C(=O)CCC(=O)O)n1 [Example 14, 4-[4-Cyano-3-hydroxy-6-(2-methoxy-phenyl)-pyridin-2-yl]-4-oxo-butyric acid] | 6.33 | < 4.40
N#Cc1cc(CCc2ccccc2)nc(C(=O)CCC(=O)O)c1O [Example 15, 4-(4-Cyano-3-hydroxy-6-phenethyl-pyridin-2-yl)-4-oxo-butyric acid] | 6.41 | < 4.40
Cn1cc(-c2cc(C#N)c(O)c(C(=O)CCC(=O)O)n2)cn1 [Example 16, 4-[4-Cyano-3-hydroxy-6-(1-methyl-1H-pyrazol-4-yl)-pyridin-2-yl]-4-oxo-butyric acid] | 6.68 | < 4.40
N#Cc1cc(-c2ccc(F)cc2)nc(C(=O)CCC(=O)O)c1O [Example 19, 4-[4-Cyano-6-(4-fluoro-phenyl)-3-hydroxy-pyridin-2-yl]-4-oxo-butyric acid] | 6.64 | < 4.40
N#Cc1cc(Cc2ccccc2Cl)nc(C(=O)CCC(=O)O)c1O [Example 21, 4-[6-(2-Chloro-benzyl)-4-cyano-3-hydroxy-pyridin-2-yl]-4-oxo-butyric acid] | 6.68 | 4.54
N#Cc1cc(Cc2ccc3ccccc3c2)nc(C(=O)CCC(=O)O)c1O [Example 24, 4-(4-Cyano-3-hydroxy-6-naphthalen-2-ylmethyl-pyridin-2-yl)-4-oxo-butyric acid] | 6.28 | < 4.40
N#Cc1cc(C2CCCCC2)nc(C(=O)CCC(=O)O)c1O [Example 25, 4-(4-Cyano-6-cyclohexyl-3-hydroxy-pyridin-2-yl)-4-oxo-butyric acid] | 6.48 | < 4.40
COc1ccc(Cc2cc(C#N)c(O)c(C(=O)CCC(=O)O)n2)cc1 [Example 27, 4-[4-Cyano-3-hydroxy-6-(4-methoxy-benzyl)-pyridin-2-yl]-4-oxo-butyric acid] | 6.26 | < 4.40
N#Cc1cc(Cc2cccc(C(F)(F)F)c2)nc(C(=O)CCC(=O)O)c1O [Example 29, 4-[4-Cyano-3-hydroxy-6-(3-trifluoromethyl-benzyl)-pyridin-2-yl]-4-oxo-butyric acid] | 6.34 | < 4.40
N#Cc1cc(Cc2c(F)cccc2Cl)nc(C(=O)CCC(=O)O)c1O [Example 30, 4-[6-(2-Chloro-6-fluoro-benzyl)-4-cyano-3-hydroxy-pyridin-2-yl]-4-oxo-butyric acid] | 6.60 | 4.77

Now from value to compound:

pIC50 (recombinant human KDM5B) | pIC50 (recombinant human KDM4A) | Compound
6.96 | 4.80 | N#Cc1cc(C#N)c(O)c(C(=O)CCC(=O)O)n1 [Example 3, 4-(4,6-Dicyano-3-hydroxy-pyridin-2-yl)-4-oxo-butyric acid]
6.68 | < 4.40 | N#Cc1cc(-c2ccccc2)nc(C(=O)CCC(=O)O)c1O [Example 7, 4-(4-Cyano-3-hydroxy-6-phenyl-pyridin-2-yl)-4-oxo-butyric acid]
6.80 | < 4.40 | COc1ccc(-c2cc(C#N)c(O)c(C(=O)CCC(=O)O)n2)cc1 [Example 9, 4-[4-Cyano-3-hydroxy-6-(4-methoxy-phenyl)-pyridin-2-yl]-4-oxo-butyric acid]
6.80 | < 4.40 | N#Cc1cc(Cc2ccccc2)nc(C(=O)CCC(=O)O)c1O [Example 10, 4-(6-Benzyl-4-cyano-3-hydroxy-pyridin-2-yl)-4-oxo-butyric acid]
6.89 | 4.80 | N#Cc1cc(-c2ccncc2)nc(C(=O)CCC(=O)O)c1O [Example 12, 4-(4-Cyano-5-hydroxy-[2,4′]bipyridinyl-6-yl)-4-oxo-butyric acid]
6.85 | 4.66 | N#Cc1cc(-c2cccnc2)nc(C(=O)CCC(=O)O)c1O [Example 13, 4-(4-Cyano-5-hydroxy-[2,3′]bipyridinyl-6-yl)-4-oxo-butyric acid]
6.72 | < 4.40 | N#Cc1cc(Cc2ccc(Cl)cc2)nc(C(=O)CCC(=O)O)c1O [Example 17, 4-[6-(4-Chloro-benzyl)-4-cyano-3-hydroxy-pyridin-2-yl]-4-oxo-butyric acid]
7.00 | < 4.40 | N#Cc1cc(Cc2cccc(Cl)c2)nc(C(=O)CCC(=O)O)c1O [Example 18, 4-[6-(3-Chloro-benzyl)-4-cyano-3-hydroxy-pyridin-2-yl]-4-oxo-butyric acid]
6.77 | < 4.40 | N#Cc1cc(-c2cccc(F)c2)nc(C(=O)CCC(=O)O)c1O [Example 20, 4-[4-Cyano-6-(3-fluoro-phenyl)-3-hydroxy-pyridin-2-yl]-4-oxo-butyric acid]
6.74 | ≤ 4.40 | N#Cc1cc(-c2ccc(Cl)cc2)nc(C(=O)CCC(=O)O)c1O [Example 22, 4-[6-(4-Chloro-phenyl)-4-cyano-3-hydroxy-pyridin-2-yl]-4-oxo-butyric acid]
6.82 | ≤ 4.40 | N#Cc1cc(-c2cccc(Cl)c2)nc(C(=O)CCC(=O)O)c1O [Example 23, 4-[6-(3-Chloro-phenyl)-4-cyano-3-hydroxy-pyridin-2-yl]-4-oxo-butyric acid]
6.70 | < 4.40 | N#Cc1cc(-c2ccc(C(F)(F)F)cc2)nc(C(=O)CCC(=O)O)c1O [Example 26, 4-[4-Cyano-3-hydroxy-6-(4-trifluoromethyl-phenyl)-pyridin-2-yl]-4-oxo-butyric acid]
6.70 | < 4.40 | N#Cc1cc(-c2cccc(C(F)(F)F)c2)nc(C(=O)CCC(=O)O)c1O [Example 28, 4-[4-Cyano-3-hydroxy-6-(3-trifluoromethyl-phenyl)-pyridin-2-yl]-4-oxo-butyric acid]
